Article PMC9851907, “A single 2′-O-methylation of ribosomal RNA gates assembly of a functional ribosome” (Nature Structural & Molecular Biology, 2022)

Target: T1, Nog2 (Nog2-3xFLAG) (Saccharomyces cerevisiae, UniProt P53742)
T1 construct: full-length, genomic C-terminal 3xFLAG-6xHis tag (kept); native anti-FLAG purification from yeast within pre-60S particle with unmodified G2922 (spb1-D52A cells)
Assay: cryo-EM structure, […] A
Assay type: binding
Settings: Mg2+; GTPase active site; nucleotide co-purified; pre-60S with unmethylated G2922; Table 1 lists only Mg2+ as ligand

Nc1nc2c(ncn2[C@@H]2O[C@H](COP(=O)(O)OP(=O)(O)O)[C@@H](O)[C@H]2O)c(=O)[nH]1 [GDP]
cryo-EM structure, 2.9 A: switch I and switch II (motifs G2 and G3) are apparently ordered around GDP
